Reference: the NIST ThermoML archive (doi:10.1021/je800664z)

How the values were obtained:
[1] = xn = mol fraction of the nth substance listed; conditions: x2 = 0; for surface tension liquid-gas: Capillary rise; for mass density / viscosity: 101 kPa, Liquid
[2] = refractive index (Na D-line) (dimensionless); xn = mol fraction of the nth substance listed; conditions: 101 kPa, Liquid, Standard Abbe refractometry, x2 = 0
[3] = for surface tension liquid-gas: Capillary rise; for mass density / viscosity: 101 kPa, Liquid
[4] = refractive index (Na D-line) (dimensionless); conditions: 101.33 kPa, Liquid, Standard Abbe refractometry

CC(C)O [propan-2-ol] + C1COCO1
Conditions | mass density, [1] [kg/m3] | refractive index, [2] | surface tension liquid-gas, [1] [mN/m] | viscosity, [1] [mPa·s]
288.15 K | 789.53 | 1.37933 | 21.75 | 2.849
298.15 K | 781.16 | 1.37515 | 20.9 | 2.043
308.15 K | 772.52 | 1.37061 | 20.17 | 1.541

C1COCO1 [1,3-dioxolane]
Conditions | mass density, [3] [kg/m3] | refractive index, [4] | surface tension liquid-gas, [3] [mN/m] | viscosity, [3] [mPa·s]
288.15 K | 1071.24 | 1.40252 | 34.37 | 0.667
298.15 K | 1059.29 | 1.39795 | 32.55 | 0.596
308.15 K | 1046.85 | 1.39322 | 30.67 | 0.535

CC(C)O [propan-2-ol]
Conditions | mass density, [3] [kg/m3] | refractive index, [4] | surface tension liquid-gas, [3] [mN/m] | viscosity, [3] [mPa·s]
288.15 K | 789.53 | 1.37933 | 21.75 | 2.849
298.15 K | 781.16 | 1.37515 | 20.9 | 2.043
308.15 K | 772.52 | 1.37061 | 20.17 | 1.541

CC(C)CC(C)(C)C [2,2,4-trimethylpentane] + C1COCO1
Conditions | mass density, [1] [kg/m3] | refractive index, [2] | surface tension liquid-gas, [1] [mN/m] | viscosity, [1] [mPa·s]
288.15 K | 696.1 | 1.39408 | 19.18 | 0.537
298.15 K | 687.95 | 1.38916 | 18.33 | 0.481
308.15 K | 679.62 | 1.38497 | 17.35 | 0.434

CC(C)CC(C)(C)C [2,2,4-trimethylpentane]
Conditions | mass density, [3] [kg/m3] | refractive index, [4] | surface tension liquid-gas, [3] [mN/m] | viscosity, [3] [mPa·s]
288.15 K | 696.1 | 1.39408 | 19.18 | 0.537
298.15 K | 687.95 | 1.38916 | 18.33 | 0.481
308.15 K | 679.62 | 1.38497 | 17.35 | 0.434
